# Data as given in PMC7648750, “In vitro and in vivo BNCT investigations using a carborane containing sulfonamide targeting CAIX epitopes on malignant pleural mesothelioma and breast cancer cells” (Scientific Reports, 2020).
# How the values were obtained:
# [1] = Mice weight monitoring after treatment; type: in vivo, Balb/c mice
# Procedure: CA-SF treatment on mesothelioma bearing mice, were performed in the thermal column of the TRIGA Mark II reactor at Pavia University (Italy) using the same protocol reported in reference^35. The irradiation facility was previously designed for TAOrMINA treatment developed to treat multiple liver metastases with BNCT. The chamber used to perform animal irradiation has a cross section of 40 × 20 cm^2, a length of 1 m and it starts at about 1.3 m from the center of the reactor core. The animal irradiation position has been characterised in terms of neutron spectrum and background photon dose[43]. To carry out neutron irradiation animals are positioned at the end of this chamber where the in air thermal neutron flux is approximately 1.2 × 10^10 n/cm^2s, operating the reactor at its maximum power. In this way the thermal neutron flux is maximised and the irradiation time is kept as short as possible (never longer than 15 min). The first mice group (irradiated and treated group, n = 5) received three doses of CA-SF/poli β cyclodextrin (37.5 mg boron/kg dose) prepared as described before. […]
# The weight of IRR, CA-SF and CA-SF + IRR groups was monitored till the end of the experiment (Supplementary Figure S1).
# AB22 mesothelioma tumour = assay: Tumour growth by MRI in AB22 mesothelioma tumour bearing mice (CA-SF with or without BNCT); type: in vivo, Balb/c mice; details: three i.v. doses 37.5 mg/kg of boron at day 0, 2, 6, followed 25 days
# Procedure: CA-SF treatment on mesothelioma bearing mice, were performed in the thermal column of the TRIGA Mark II reactor at Pavia University (Italy) using the same protocol reported in reference^35. The irradiation facility was previously designed for TAOrMINA treatment developed to treat multiple liver metastases with BNCT. The chamber used to perform animal irradiation has a cross section of 40 × 20 cm^2, a length of 1 m and it starts at about 1.3 m from the center of the reactor core. The animal irradiation position has been characterised in terms of neutron spectrum and background photon dose[43]. […]
# The T2-weighted MR images were acquired at 1 T with an Aspect M2-High Performance MRI System (Aspect Magnet Technologies Ltd., Netanya, Israel) consisting of a NdFeB magnet, equipped with a 35 mm solenoid Tx/Tr coil of inner diameter 35 mm. […] The tumour volume (mm^3) was calculated in the region of interest (ROI) manually drawn on the whole tumour by ITK-SNAP software. Tumour volume enhancement (%) was calculated according to the following equation: ((tumour volume (time = n) – tumour volume (time = 0)/tumour volume (time = 0)) × 100, where time = 0 indicates the day of the first CA-SF treatment and time = n indicates the days when mice were acquired by MRI.
# AB22 cells [2] = assay: BNCT in vitro: viable cells 24 h after neutron irradiation (trypan blue); type: cell-based, mouse; details: AB22, 130 µM 24 h, thermal neutrons 15 min 30 kW, 24 h after irradiation
# Procedure: 75 flasks of MCF7 (4 flasks), ZL34 (4 flasks) and AB22 (4 flasks) were seeded at a density of 1.8 × 10^6 cells, 1.2 × 10^6 cells and 5.5 × 10^5 cells, respectively. 24 h later for MCF7 and ZL34 and 72 h later for AB22, 2 flasks of each cell lines were incubated for 24 h in the presence of 72 µM, 187.5 µM and 130 µM of CA-SF, respectively. After the incubation, cells were washed with PBS and their medium was renewed. Two flasks of MCF7, ZL34 and AB22 cells incubated with CA-SF and two flasks containing non-treated control cells were irradiated for 15′ at 30 kW reactor power in the thermal column of the TRIGA Mark II reactor at the University of Pavia, Italy. At the end of the irradiation, the medium was removed, it was replaced with fresh medium and flasks were placed at 37 °C in a humidified atmosphere of 5% CO2.
# The proliferation assay was carried out following the same procedure reported in reference 32. The day after irradiation cells were detached with 0.05% trypsin and 0.02% EDTA and the trypan blue exclusion test of cell viability was performed. Cell viability was reported as percentage of cells observed in treated a/o irradiated samples relative to that observed in control cells.
# AB22 cells [3] = assay: Cell uptake of boron (ICP-MS); type: cell-based, mouse; details: AB22, 130 µM CA-SF in culture medium, 24 h, 37 °C
# Procedure: For the in vitro uptake experiments, 6 × 10^5 MCF7, 4.5 × 10^5 ZL34 and 2 × 10^5 AB22 were seeded in 6 cm of diameter dishes. After 24 h for MCF7 and ZL34 and after 72 h for AB22, the cells were incubated for 24 h with increasing concentration of CA-SF. All the incubations were performed in condition of normoxia at 37 °C, 5% CO2. At the end of the incubation, cells were washed three times with 3 ml ice-cold PBS and detached with 0.05% trypsin and 0.02% EDTA. Finally, all cell samples were transferred in falcon tubes and sonicated at 30% of power for 30 s in ice. The boron content of each cell sample lysates was determined by ICP-MS technique (see below). The milligrams of proteins, proportional to the number of cells, of each cell sample lysate, was evaluated by the Bradford assay (Biorad) using bovine serum albumin as a standard.
# Boron content from cell samples, mice organs, plasma and tumours were determined using inductively coupled plasma mass spectrometry (ICP-MS) (Element-2; Thermo-Finnigan, Rodano (MI), Italy).
# Sample digestion was performed using a high performance Microwave Digestion System (ETHOS UP Milestone, Bergamo, Italy) after the addition of concentrated HNO3 (70%) to cell lysates (1:1), in a final volume of 0.4 mL. […] The amounts of boron µg /g tissue were thus calculated considering that 1 g of tissue contains 1 × 10^9 cells.
substance,measurement,setting,value
1-Sulfonamidomethyl-o-carborane [CA-SF],loss of initial weight,"[1]; treated and irradiated mice, CA-SF three doses + 15 min irradiation 250 kW",10%
same,weight decrease at the end of the study,"[1]; treated mice (CA-SF, not irradiated)",5%
same,tumour growth (MRI tumour volume) vs vehicle control mice,"AB22 mesothelioma tumour; CA-SF alone, not irradiated",significantly inhibits mice tumour growth
same,"tumour growth (MRI tumour volume), CA-SF + BNCT","AB22 mesothelioma tumour; neutron irradiation day 3, 15 min, 250 kW",dramatic reduction of the mass of tumours
same,viability of CA-SF treated and irradiated cells vs CA-SF treated cells,AB22 cells [2],significantly reduced
same,boron loaded into the target cells,AB22 cells [3],160 µg/g
